Measurements taken from ChEMBL document CHEMBL4725230, “Syntheses and pharmacokinetic evaluations of four metabolites of 2-(4-(2-((1H-benzo[d]imidazol-2-yl)thio)ethyl)piperazin-1-yl)-N-(6-methyl-2,4-bis-(methylthio)pyridin-3-yl)acetamide hydrochloride [K-604], an acyl-CoA:cholesterol O-acyltransferase-1 inhibitor” (Bioorg Med Chem, 2020).

Test: Retention time of the compound in human liver microsomes after 5 mins in presence of NADPH by LC-MS/MS analysis
Assay type: ADME, Microsome

Retention_time: 3.37 min
Structure (SMILES): CSc1nc(C)cc([S+](C)[O-])c1NC(=O)CN1CCN(CCSc2nc3ccccc3[nH]2)CC1 (stereo unspecified)
